Assay results taken from ChEMBL document CHEMBL1201862, “PubChem BioAssay data set” (2004).
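Five compound concentrations were applied to cells in 96-well plates for 48 hours; endpoints were derived by simple linear interpolation of the resulting dose-response curve. GI50 = concentration required for 50% inhibition of growth.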 Activity calls are given as the source filed them. Cut-off read from the data, not from the text of the source: active = GI50 up to about 1.1 µM and inactive = higher.

Legend:
Assay in all cases: NCI anticancer screen, dose series, 48 h
DU-145 = test system: DU-145
HCC 2998 = test system: HCC 2998
HCT-116 = test system: HCT-116
Hs-578T = test system: Hs-578T
K562 = test system: K562
OVCAR-5 = test system: OVCAR-5
RPMI-8226 = test system: RPMI-8226
SF-295 = test system: SF-295
SK-MEL-2 = test system: SK-MEL-2
SK-MEL-5 = test system: SK-MEL-5
SN12C = test system: SN12C
SNB-19 = test system: SNB-19
UACC-62 = test system: UACC-62
UO-31 = test system: UO-31
A498 = test system: A498
A549 = test system: A549
LOX IMVI = test system: LOX IMVI
SF-539 = test system: SF-539
TK-10 = test system: TK-10
UACC-257 = test system: UACC-257

Compound	GI50 (DU-145)	GI50 (HCC 2998)	GI50 (HCT-116)	GI50 (Hs-578T)	GI50 (K562)	GI50 (OVCAR-5)	GI50 (RPMI-8226)	GI50 (SF-295)	GI50 (SK-MEL-2)	GI50 (SK-MEL-5)	GI50 (SN12C)	GI50 (SNB-19)	GI50 (UACC-62)	GI50 (UO-31)	GI50 (A498)	GI50 (A549)	GI50 (LOX IMVI)	GI50 (SF-539)	GI50 (TK-10)	GI50 (UACC-257)
CCOC(=O)CCC(NC(=O)OCc1ccccc1)C(=O)NC(CCC(=O)OCC)C(=O)NNC(=O)OC(C)(C)C (stereo not drawn)	> 100 µM (inactive)	> 100 µM (inactive)	> 100 µM (inactive)	> 100 µM (inactive)	> 100 µM (inactive)	> 100 µM (inactive)	> 100 µM (inactive)	> 100 µM (inactive)	> 100 µM (inactive)	> 100 µM (inactive)	> 100 µM (inactive)	> 100 µM (inactive)	> 100 µM (inactive)	> 100 µM (inactive)	–	–	–	–	–	–
COc1cccc(-c2nnc3c(-c4ccccc4)nc4ccccc4n23)c1	42.5 µM (inactive)	8.49 µM (inactive)	19.7 µM (inactive)	57.9 µM (inactive)	4.11 µM (inactive)	> 100 µM (inactive)	3.45 µM (inactive)	35.6 µM (inactive)	10.1 µM (inactive)	14 µM (inactive)	73.1 µM (inactive)	> 100 µM (inactive)	75.7 µM (inactive)	10.5 µM (inactive)	6.58 µM (inactive)	21.2 µM (inactive)	63.5 µM (inactive)	65.8 µM (inactive)	36.3 µM (inactive)	17.9 µM (inactive)
Cc1cccc2c(N)c3cccc(C(=O)NCCN(C)C)c3nc12	0.0188 µM (active)	0.027 µM (active)	0.0236 µM (active)	0.207 µM (active)	0.0162 µM (active)	0.0935 µM (active)	< 0.021 µM (active)	< 0.0298 µM (active)	0.231 µM (active)	0.114 µM (active)	< 0.0167 µM (active)	–	0.0649 µM (active)	0.112 µM (active)	0.157 µM (active)	< 0.0161 µM (active)	< 0.033 µM (active)	–	0.214 µM (active)	0.193 µM (active)
NC(CCP(=O)(O)CCC1C=CC=CC1)C(=O)O (stereo not drawn)	> 100 µM (inactive)	> 100 µM (inactive)	> 100 µM (inactive)	> 100 µM (inactive)	> 100 µM (inactive)	> 100 µM (inactive)	> 100 µM (inactive)	> 100 µM (inactive)	> 100 µM (inactive)	> 100 µM (inactive)	> 100 µM (inactive)	> 100 µM (inactive)	> 100 µM (inactive)	> 100 µM (inactive)	–	> 100 µM (inactive)	> 100 µM (inactive)	56.8 µM (inactive)	> 100 µM (inactive)	> 100 µM (inactive)
COC(=O)[C@H](Cc1ccc(OC(C)(C)C)cc1)N[C@H](C)C(=O)N[C@@H](Cc1ccccc1)C(=O)OCc1ccccc1	> 100 µM (inactive)	> 100 µM (inactive)	35.6 µM (inactive)	> 100 µM (inactive)	25.6 µM (inactive)	> 100 µM (inactive)	37.8 µM (inactive)	> 100 µM (inactive)	–	> 100 µM (inactive)	26.9 µM (inactive)	> 100 µM (inactive)	> 100 µM (inactive)	14.8 µM (inactive)	> 100 µM (inactive)	46.6 µM (inactive)	34.4 µM (inactive)	> 100 µM (inactive)	> 100 µM (inactive)	> 100 µM (inactive)
O=C(Nc1ccccc1F)c1c(O)nc2sccn2c1=O	> 10 µM (inactive)	> 10 µM (inactive)	> 10 µM (inactive)	> 10 µM (inactive)	–	> 10 µM (inactive)	> 10 µM (inactive)	> 10 µM (inactive)	> 10 µM (inactive)	> 10 µM (inactive)	> 10 µM (inactive)	> 10 µM (inactive)	> 10 µM (inactive)	> 10 µM (inactive)	> 10 µM (inactive)	> 10 µM (inactive)	> 10 µM (inactive)	> 10 µM (inactive)	> 10 µM (inactive)	–
CC(=O)OC/C=C/Cn1ncc(=O)[nH]c1=O	> 100 µM (inactive)	> 100 µM (inactive)	–	> 100 µM (inactive)	> 100 µM (inactive)	> 100 µM (inactive)	> 100 µM (inactive)	–	> 100 µM (inactive)	> 100 µM (inactive)	> 100 µM (inactive)	> 100 µM (inactive)	–	> 100 µM (inactive)	> 100 µM (inactive)	> 100 µM (inactive)	> 100 µM (inactive)	> 100 µM (inactive)	–	–
N/N=C1\C(OC(=O)Nc2cccc(Cl)c2)=Nc2ccccc21	8.39 µM (inactive)	5.71 µM (inactive)	4.67 µM (inactive)	16.1 µM (inactive)	5.92 µM (inactive)	14 µM (inactive)	2.9 µM (inactive)	2.35 µM (inactive)	10.3 µM (inactive)	11.5 µM (inactive)	4.95 µM (inactive)	7.13 µM (inactive)	7.78 µM (inactive)	5.32 µM (inactive)	11.4 µM (inactive)	5.92 µM (inactive)	7.83 µM (inactive)	17.1 µM (inactive)	12.1 µM (inactive)	13.7 µM (inactive)
C[N+](C)(C)CC1CCCC(C[N+](C)(C)C)C1=O (stereo not drawn)	5.75 µM (inactive)	0.513 µM (active)	0.804 µM (active)	13 µM (inactive)	0.0724 µM (active)	3.52 µM (inactive)	0.0579 µM (active)	29.7 µM (inactive)	1.9 µM (inactive)	5.16 µM (inactive)	1.19 µM (inactive)	19 µM (inactive)	4.66 µM (inactive)	1.67 µM (inactive)	9.62 µM (inactive)	14.8 µM (inactive)	1.23 µM (inactive)	4.79 µM (inactive)	1.21 µM (inactive)	0.805 µM (active)
